This is an account of results in patent publication US20100015141A1, “4-PHENOXY-6-ARYL-1H-PYRAZOLO[3,4-D]PYRIMIDINE AND N-ARYL-6-ARYL-1H-PYRAZOLO[3,4-D]PYRIMIDIN-4-AMINE COMPOUNDS, THEIR USE AS MTOR KINASE AND PI3 KINASE INHIBITORS, AND THEIR SYNTHESES” (Wyeth, priority 2008, published 2010).

Format in all cases: biochemical
One experiment has as its target mTOR (Homo sapiens, UniProt P42345). Kind of experiment: mTOR enzyme assay (DELFIA, His6-S6K phosphorylation). Also on record: FLAG. As to conditions: 100 μM ATP, 1.25 μM His6-S6K.
Another experiment addresses PI3K-γ (Homo sapiens, UniProt P48736). The experiment can be described thus: PI3K-gamma fluorescence polarization assay. As to conditions: 20 μM PIP2, 25 μM ATP. Here is the method:
(§1) The reaction buffer was 20 mM HEPES pH7.5, 2 mM MgCl2, 0.05% CHAPS, and 0.01% βME (added fresh). The substrate solution was 40 μM PIP2 (diC8, Echelon, Salt Lake City Utah cat #P-4508, 1 mM in water) and 50 μM ATP in the reaction buffer. Nunc 384-well black polypropylene fluorescent plates were used for PI3K assays. The assay is run by putting 9.5 μl of freshly diluted enzyme in the reaction buffer per well, adding 0.5 μl of diluted drug or DMSO, and mixing. Then 10 μl of the substrate solution is added to each well to start the reaction. A final concentration of 20 μM PIP2 and 25 μM ATP in the reaction was used. Reactions were allowed to proceed for 30-60 minutes at room temperature. After 30-60 minutes, 20 μl of a solution of 10 nM TAMRA detector (Red detector probe-Echelon) and 2.5 uM of GST-murineGRP (1.5 mg/ml in 17% glycerol) was added per well to stop the reaction. The resulting solution was mixed well and allowed to stand for 90-110 minutes before reading plate. Assay Plates were read on Perkin-Elmer Envision plate readers with appropriate filters for Tamra [BODIPY-TMRI(1,3,4,5)P4]. Data obtained were used to calculate enzymatic activity and enzyme inhibition by inhibitor compounds. It is important to keep Red probe solutions dark. This procedure is adapted from Echelon Biosciences Inc procedure for their PI3-Kinase fluorescence polarization activity Assay kit Product number K-1100.
In general terms: Polarisation of emitted light reports the rotation of a fluorescent probe.

The target of another experiment is PI3K-α (Homo sapiens, UniProt P42336). Kind of experiment: PI3K-alpha fluorescence polarization assay. The settings on record: 20 μM PIP2, 25 μM ATP. Here is the method:
as §1

The structures appear in SMILES notation. Some results are limits rather than exact numbers.

PI3K-γ, sequence (P48736 whole entry, species assumed): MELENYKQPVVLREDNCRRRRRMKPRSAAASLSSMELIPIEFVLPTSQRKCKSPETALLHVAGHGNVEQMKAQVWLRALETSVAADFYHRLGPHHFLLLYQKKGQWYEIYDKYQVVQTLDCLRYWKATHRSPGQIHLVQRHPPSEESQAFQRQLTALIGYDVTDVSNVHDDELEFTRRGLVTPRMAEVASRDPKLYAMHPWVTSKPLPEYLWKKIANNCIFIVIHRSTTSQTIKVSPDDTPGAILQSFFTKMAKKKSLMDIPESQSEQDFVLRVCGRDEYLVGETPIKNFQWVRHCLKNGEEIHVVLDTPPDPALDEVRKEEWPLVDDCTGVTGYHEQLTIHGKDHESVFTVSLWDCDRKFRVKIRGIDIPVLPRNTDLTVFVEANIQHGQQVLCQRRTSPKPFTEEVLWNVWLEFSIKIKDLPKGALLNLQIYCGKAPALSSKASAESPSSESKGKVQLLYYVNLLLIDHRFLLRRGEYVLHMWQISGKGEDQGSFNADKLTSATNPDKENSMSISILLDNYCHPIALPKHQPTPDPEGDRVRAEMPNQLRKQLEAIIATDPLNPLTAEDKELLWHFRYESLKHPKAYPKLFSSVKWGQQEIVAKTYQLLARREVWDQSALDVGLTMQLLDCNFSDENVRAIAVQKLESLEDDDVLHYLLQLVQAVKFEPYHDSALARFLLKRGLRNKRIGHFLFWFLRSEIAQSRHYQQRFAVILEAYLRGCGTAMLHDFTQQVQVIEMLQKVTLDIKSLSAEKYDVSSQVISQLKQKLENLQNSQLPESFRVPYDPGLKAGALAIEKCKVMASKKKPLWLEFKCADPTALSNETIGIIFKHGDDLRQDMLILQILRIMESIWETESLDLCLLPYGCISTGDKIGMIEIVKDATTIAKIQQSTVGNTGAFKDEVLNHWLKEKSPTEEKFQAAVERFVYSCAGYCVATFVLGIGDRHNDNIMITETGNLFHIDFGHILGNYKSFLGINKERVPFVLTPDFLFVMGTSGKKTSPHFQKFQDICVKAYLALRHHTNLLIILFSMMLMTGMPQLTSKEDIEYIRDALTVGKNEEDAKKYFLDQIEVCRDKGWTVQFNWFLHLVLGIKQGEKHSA
PI3K-α, sequence (P42336 whole entry, species assumed): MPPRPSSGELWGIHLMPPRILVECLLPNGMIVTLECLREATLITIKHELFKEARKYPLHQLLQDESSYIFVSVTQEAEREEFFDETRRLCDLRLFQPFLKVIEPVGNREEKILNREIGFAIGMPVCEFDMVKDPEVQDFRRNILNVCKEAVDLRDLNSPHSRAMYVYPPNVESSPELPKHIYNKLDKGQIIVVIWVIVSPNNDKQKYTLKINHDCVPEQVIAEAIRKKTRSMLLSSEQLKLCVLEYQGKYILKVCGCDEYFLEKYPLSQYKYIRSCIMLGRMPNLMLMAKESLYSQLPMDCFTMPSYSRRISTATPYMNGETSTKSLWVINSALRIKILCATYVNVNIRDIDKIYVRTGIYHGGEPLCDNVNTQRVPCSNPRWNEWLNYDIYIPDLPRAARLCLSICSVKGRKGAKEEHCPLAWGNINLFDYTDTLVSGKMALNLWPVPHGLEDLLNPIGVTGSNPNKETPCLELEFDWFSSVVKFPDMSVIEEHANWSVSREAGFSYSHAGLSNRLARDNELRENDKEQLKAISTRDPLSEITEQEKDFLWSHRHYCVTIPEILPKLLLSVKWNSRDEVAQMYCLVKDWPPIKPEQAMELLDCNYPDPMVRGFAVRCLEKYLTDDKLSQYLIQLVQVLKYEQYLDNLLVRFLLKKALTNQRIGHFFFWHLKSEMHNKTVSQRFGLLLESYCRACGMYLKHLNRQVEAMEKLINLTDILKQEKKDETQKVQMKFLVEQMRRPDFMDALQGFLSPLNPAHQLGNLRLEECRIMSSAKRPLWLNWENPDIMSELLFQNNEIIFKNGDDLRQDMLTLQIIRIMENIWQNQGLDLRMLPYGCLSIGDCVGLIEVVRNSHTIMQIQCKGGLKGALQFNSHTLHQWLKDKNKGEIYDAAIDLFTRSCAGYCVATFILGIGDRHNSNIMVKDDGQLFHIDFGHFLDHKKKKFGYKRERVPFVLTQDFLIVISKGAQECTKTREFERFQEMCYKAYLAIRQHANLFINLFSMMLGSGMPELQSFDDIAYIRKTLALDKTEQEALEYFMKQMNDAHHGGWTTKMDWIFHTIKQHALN
PI3K-α, sequence (P27986 whole entry partner, species assumed): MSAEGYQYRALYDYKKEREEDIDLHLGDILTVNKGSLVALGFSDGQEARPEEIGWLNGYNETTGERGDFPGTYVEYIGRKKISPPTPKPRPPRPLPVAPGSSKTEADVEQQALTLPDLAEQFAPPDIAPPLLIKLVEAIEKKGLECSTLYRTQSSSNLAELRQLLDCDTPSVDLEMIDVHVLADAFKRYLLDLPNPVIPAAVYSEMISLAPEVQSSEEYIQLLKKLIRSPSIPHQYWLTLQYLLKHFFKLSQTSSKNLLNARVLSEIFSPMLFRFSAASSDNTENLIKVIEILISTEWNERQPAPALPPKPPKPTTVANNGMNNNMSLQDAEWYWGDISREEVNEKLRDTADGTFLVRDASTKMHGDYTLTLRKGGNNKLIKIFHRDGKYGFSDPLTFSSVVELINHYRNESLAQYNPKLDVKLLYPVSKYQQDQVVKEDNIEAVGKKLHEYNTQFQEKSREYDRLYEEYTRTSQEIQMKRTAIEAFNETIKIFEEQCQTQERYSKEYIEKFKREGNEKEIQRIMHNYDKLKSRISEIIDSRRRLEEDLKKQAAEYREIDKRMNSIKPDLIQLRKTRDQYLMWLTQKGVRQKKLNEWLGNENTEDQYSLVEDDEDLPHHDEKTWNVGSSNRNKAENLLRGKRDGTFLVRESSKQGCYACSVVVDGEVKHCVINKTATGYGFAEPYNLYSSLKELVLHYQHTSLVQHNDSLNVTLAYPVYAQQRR

Turning to `CC(=O)Nc1ccc(Oc2nc(-c3ccccc3)nc3c2cnn3C)cc1` [Example 74, N-{4-[(1-methyl-6-phenyl-1H-pyrazolo[3,4-d]pyrimidin-4-yl)oxy]phenyl}acetamide], the results for the IC50 against mTOR, against PI3K-γ and at PI3K-α were 5.5 µM, 1340 nM and 637 nM, respectively.
For `Cn1cc(-c2nc(Nc3ccc(C(N)=O)cc3)c3cnn(C)c3n2)cn1` [Example 62, 4-{[1-methyl-6-(1-methyl-1H-pyrazol-4-yl)-1H-pyrazolo[3,4-d]pyrimidin-4-yl]amino}benzamide] the same measures were 4.8 µM, 1590 nM and 603 nM.
As to `CNC(=O)c1ccc(Nc2nc(Nc3ccc(NC(=O)Nc4cccnc4)cc3)nc3c2cnn3C)cc1` [Example 90, N-Methyl-4-{[1-methyl-6-({4-[(pyridin-3-ylcarbamoyl)amino]phenyl}amino)-1H-pyrazolo[3,4-d]pyrimidin-4-yl]amino}benzamide], the IC50 (commonly the concentration that inhibits the measured activity by half) against mTOR was found to be 0.012 µM; against PI3K-γ, 75 nM; against PI3K-α, 2.5 nM.
In the same order, the values of `Cn1ncc2c(Nc3ccc(C(N)=O)cc3)nc(Nc3ccc(NC(=O)NC4CC4)cc3)nc21` [Example 88, 4-{[6-({4-[(Cyclopropylcarbamoyl)amino]phenyl}amino)-1-methyl-1H-pyrazolo[3,4-d]pyrimidin-4-yl]amino}benzamide] are 0.044 µM, 263 nM and 27 nM.
For `CC(=O)Nc1ccc(N(C)c2nc(-c3ccccc3)nc3c2cnn3C)cc1` [Example 35, N-{4-[methyl(1-methyl-6-phenyl-1H-pyrazolo[3,4-d]pyrimidin-4-yl)amino]phenyl}acetamide] the same measures were 4.7 µM, 7470 nM and 1500 nM.
In the case of `Cn1ncc2c(Oc3ccc4[nH]ccc4c3)nc(-c3cccc(Cl)c3)nc21` [Example 66, 6-(3-chlorophenyl)-4-(1H-indol-5-yloxy)-1-methyl-1H-pyrazolo[3,4-d]pyrimidine], the IC50 against mTOR was over 20 µM; at PI3K-γ, 1160 nM; on PI3K-α, 762 nM.
Regarding `Cn1ncc2c(Nc3ccc(C(N)=O)cc3)nc(-c3ccc(-c4ccccc4)cc3)nc21` [Example 60, 4-[(6-biphenyl-4-yl-1-methyl-1H-pyrazolo[3,4-d]pyrimidin-4-yl)amino]benzamide], the IC50 against mTOR is over 20 µM; against PI3K-γ, over 10000 nM; at PI3K-α, 8550 nM.
Take `COc1cccc(-c2nc(Oc3ccc(OC)c(OC)c3)c3cnn(C)c3n2)c1` [Example 45, 4-(3,4-dimethoxyphenoxy)-6-(3-methoxyphenyl)-1-methyl-1H-pyrazolo[3,4-d]pyrimidine]: the IC50 against mTOR is over 20 µM; on PI3K-γ, 1290 nM; against PI3K-α, 653 nM.
As for `CN(C)CCNC(=O)Nc1ccc(Nc2nc(Nc3ccc(C(N)=O)cc3)c3cnn(C)c3n2)cc1` [Example 86, 4-[(6-{[4-({[2-(Dimethylamino)ethyl]carbamoyl}amino)phenyl]amino}-1-methyl-1H-pyrazolo[3,4-d]pyrimidin-4-yl)amino]benzamide], the IC50 at mTOR is 2.2 µM; at PI3K-γ it was 143 nM; against PI3K-α, 10 nM.
In the same order, the values of `CN(C)CCN(C)C(=O)c1ccc(NC(=O)Nc2ccc(Nc3nc(Nc4ccc(C(N)=O)cc4)c4cnn(C)c4n3)cc2)cc1` [Example 92, 4-({[4-({4-[(4-Carbamoylphenyl)amino]-1-methyl-1H-pyrazolo[3,4-d]pyrimidin-6-yl}amino)phenyl]carbamoyl}amino)-N-[2-(dimethylamino)ethyl]-N-methylbenzamide] are 0.009 µM, 6 nM and under 0.3 nM.
In the case of `CN1Cc2cc(Nc3nc(Nc4ccc(NC(=O)Nc5cccnc5)cc4)nc4c3cnn4C)ccc2C1=O` [Example 95, 1-[4-({1-Methyl-4-[(2-methyl-1-oxo-2,3-dihydro-1H-isoindol-5-yl)amino]-1H-pyrazolo[3,4-d]pyrimidin-6-yl}amino)phenyl]-3-pyridin-3-ylurea], the IC50 at mTOR turned out to be 0.068 µM; against PI3K-γ, 148 nM; on PI3K-α, 6 nM.
In the same order, the values of `Cn1ncc2c(Nc3ccc(C(N)=O)cc3)nc(Nc3ccc(NC(=O)Nc4ccc(C(=O)N5CCOCC5)cc4)cc3)nc21` [Example 84, 4-[(1-Methyl-6-{[4-({[4-(morpholin-4-ylcarbonyl)phenyl]carbamoyl}amino)phenyl]amino}-1H-pyrazolo[3,4-d]pyrimidin-4-yl)amino]benzamide] are 0.007 µM, 5 nM and 0.7 nM.
In the same order, the values of `Cn1ncc2c(Oc3ccc4[nH]ccc4c3)nc(-c3ccccc3)nc21` [Example 76, 4-(1H-indol-5-yloxy)-1-methyl-6-phenyl-1H-pyrazolo[3,4-d]pyrimidine] are 0.33 µM, 570 nM and 558 nM.
In the same order, the values of `CN(C)C(=O)c1ccc(Nc2nc(Nc3ccc(NC(=O)Nc4cccnc4)cc3)nc3c2cnn3C)cc1` [Example 93, N,N-Dimethyl-4-{[1-methyl-6-({4-[(pyridin-3-ylcarbamoyl)amino]phenyl}amino)-1H-pyrazolo[3,4-d]pyrimidin-4-yl]amino}benzamide] are 0.012 µM, 75 nM and 2.1 nM.
For `COc1ccc2cc(-c3nc(Oc4ccc5[nH]ccc5c4)c4cnn(C)c4n3)ccc2c1` [Example 57, 4-(1H-indol-5-yloxy)-6-(6-methoxy-2-naphthyl)-1-methyl-1H-pyrazolo[3,4-d]pyrimidine], the figures for the IC50 against mTOR, against PI3K-γ and against PI3K-α were 12 µM, over 10000 nM and 3220 nM, respectively.
For `CC(C)NC(=O)Nc1ccc(Nc2nc(Nc3ccc(C(N)=O)cc3)c3cnn(C)c3n2)cc1` [Example 89, 4-{[1-Methyl-6-({4-[(propan-2-ylcarbamoyl)amino]phenyl}amino)-1H-pyrazolo[3,4-d]pyrimidin-4-yl]amino}benzamide] the same measures were 0.07 µM, 523 nM and 124 nM.
In the same order, the values of `CN(c1ccc(C(N)=O)cc1)c1nc(-c2ccccc2)nc2c1cnn2C` [Example 34, 4-[methyl(1-methyl-6-phenyl-1H-pyrazolo[3,4-d]pyrimidin-4-yl)amino]benzamide] are 16 µM, over 10000 nM and 6700 nM.
With `Cn1cc(-c2nc(Oc3ccc4[nH]ccc4c3)c3cnn(C)c3n2)cn1` [Example 59, 4-(1H-indol-5-yloxy)-1-methyl-6-(1-methyl-1H-pyrazol-4-yl)-1H-pyrazolo[3,4-d]pyrimidine], the IC50 is over 20 µM against mTOR, 2510 nM against PI3K-γ and 2870 nM on PI3K-α.
For `CC(C)c1ccc(-c2nc(Nc3ccc(C(N)=O)cc3)c3cnn(C)c3n2)cc1` [Example 61, 4-{[6-(4-isopropylphenyl)-1-methyl-1H-pyrazolo[3,4-d]pyrimidin-4-yl]amino}benzamide] the same measures were over 20 µM, over 10000 nM and 2460 nM.
In the same order, the values of `Cn1ncc2c(Oc3ccc4[nH]ccc4c3)nc(-c3cccnc3)nc21` [Example 41, 4-(1H-indol-5-yloxy)-1-methyl-6-pyridin-3-yl-1H-pyrazolo[3,4-d]pyrimidine] are 7.2 µM, 428 nM and 215 nM.
In the same order, the values of `Cn1ncc2c(Nc3ccc(C(N)=O)cc3)nc(Nc3cccc(NC(=O)Nc4cccnc4)c3)nc21` [Example 80, 4-{[1-Methyl-6-({3-[(pyridin-3-ylcarbamoyl)amino]phenyl}amino)-1H-pyrazolo[3,4-d]pyrimidin-4-yl]amino}benzamide] are 3.45 µM, 2010 nM and 529 nM.
`CC(C)N1CCN(C(=O)c2ccc(NC(=O)Nc3ccc(Nc4nc(Nc5ccc(C(N)=O)cc5)c5cnn(C)c5n4)cc3)cc2)CC1` [Example 87, 4-({1-Methyl-6-[(4-{[(4-{[4-(propan-2-yl)piperazin-1-yl]carbonyl}phenyl)carbamoyl]amino}phenyl)amino]-1H-pyrazolo[3,4-d]pyrimidin-4-yl}amino)benzamide]: the IC50 at mTOR is 0.008 µM; against PI3K-γ, 5 nM; against PI3K-α, 0.4 nM.
Take `Cn1ncc2c(Oc3ccc4[nH]ccc4c3)nc(-c3cccc([N+](=O)[O-])c3)nc21` [Example 67, 4-(1H-indol-5-yloxy)-1-methyl-6-(3-nitrophenyl)-1H-pyrazolo[3,4-d]pyrimidine]: the IC50 worked out at 16 µM against mTOR, 1260 nM against PI3K-γ and 660 nM on PI3K-α.
For `CC(=O)Nc1ccc(Oc2nc(-c3ccc(O)cc3)nc3c2cnn3C)cc1` [Example 54, N-(4-{[6-(4-hydroxyphenyl)-1-methyl-1H-pyrazolo[3,4-d]pyrimidin-4-yl]oxy}phenyl)acetamide], the IC50 on mTOR amounted to 4.9 µM; on PI3K-γ it was 398 nM; on PI3K-α, 266 nM.
